We go through 24 compounds from US8415380B2 (Hoffmann-La Roche Inc., priority 2007, dated 2013).

For one data set, the target named is T1, rat mGlu2 receptor (Rattus norvegicus, UniProt P31421).
T1 construct: expressed in transfected cells; membranes prepared
In words: [3H]-LY354740 binding on mGlu2 transfected CHO cell membranes. Particulars: 10 nM [3H]-LY354740, mGlu2 transfected CHO cell membranes, room temperature, 1 hour. An excerpt: [^3H]-LY354740 Binding on mGlu2 Transfected CHO Cell Membranes Transfection and Cell Culture
cDNA encoding the rat mGlu2 receptor protein in pBluescript II was subcloned into the eukaryotic expression vector pcDNA I-amp from Invitrogen Ltd (Paisley, UK). This vector construct (pcD1mGR^2) was co-transfected with a psvNeo plasmid encoding the gene for neomycin resistance, into CHO cells by a modified calcium phosphate method described by Chen & Okayama (1988). The cells were maintained in Dulbecco's Modified Eagle medium with reduced L-glutamine (1 mM final concentration), 36 mg/L L-Proline and 10% dialysed foetal calf serum from Gibco-Invitrogen; the medium was supplemented with 500 microM α-methyl-4-carboxyphenylglycine (MCPG). Selection was made in the presence of G-418 (300 ug/ml final concentration). Clones were identified by reverse transcription of 5 μg total RNA, followed by PCR using mGlu2 receptor specific primers 5′-[…]-3′ and 5′-[…]-3′ in 60 mM Tris HCl (pH 10), 15 mM (NH4)2SO4, 2 mM MgCl2, 25 units/ml Taq Polymerase with 30 cycles annealing at 60° C. for 1 min., extention at 72° C. for 30 s, and 1 min. 95° C. denaturation.
Cells, cultured as above, were harvested and washed three times with cold PBS and frozen at −80° C. The pellet was resuspended in cold 20 mM HEPES-NaOH buffer containing 10 mM EDTA (pH 7.4), and homogenised with a polytron (Kinematica, A G, Littau, Switzerland) for 10 s at 10 000 rpm. After centrifugation for 30 min. at 4° C., the pellet was washed once with cold 20 mM HEPES-NaOH buffer containing 0.1 mM EDTA, (pH 7.4). After a second centrifugation for 30 min. at 4° C. the pellet was resuspended in cold 20 mM HEPES-NaOH buffer containing 0.1 mM EDTA, (pH 7.4). Protein content was measured using the Micro BCA method from Pierce-Perbio (Rockford, Ill., USA) using bovine serum albumin as standard.
After thawing, the membranes were resuspended in cold 50 mM Tris-HCl buffer containing 2 mM MgCl2 (pH 7.4) (binding buffer). The final concentration of the membranes in the assays was 25 μg protein/ml. Inhibition experiments were performed with membranes incubated with 10 nM [^3H]-LY354740 at room temperature, for 1 hour, in presence of various concentrations of the compound to be tested. Following the incubations, membranes were filtered onto Whatmann GF/B glass fiber filters or onto GF/B Unifilter plates and washed 5 times with cold binding buffer. Non specific binding was measured in the presence of 10 μM (2S,2′R,3′R)-2-(2′3′-Dicarboxycyclopropyl)glycine (DCG IV from Tocris, Ellisville, Mo. USA). After transfer of the filters into plastic vials containing 10 ml of Ultima-gold scintillation fluid from Perkin-Elmer (Boston, Mass., USA), the radioactivity was measured by liquid scintillation in a Tri-Carb 2500 TR counter (Packard, Zurich, Switzerland). For 96-Unifilter plates the radioactivity was measured after addition of Microscint 40 scintillation fluid (Perkin Elmer, Boston Mass.) using a TopCount NXT (Packard)
The inhibition curves were fitted with a four parameter logistic equation giving IC50 values, and Hill coefficients.

T1 sequence (P31421 19-872): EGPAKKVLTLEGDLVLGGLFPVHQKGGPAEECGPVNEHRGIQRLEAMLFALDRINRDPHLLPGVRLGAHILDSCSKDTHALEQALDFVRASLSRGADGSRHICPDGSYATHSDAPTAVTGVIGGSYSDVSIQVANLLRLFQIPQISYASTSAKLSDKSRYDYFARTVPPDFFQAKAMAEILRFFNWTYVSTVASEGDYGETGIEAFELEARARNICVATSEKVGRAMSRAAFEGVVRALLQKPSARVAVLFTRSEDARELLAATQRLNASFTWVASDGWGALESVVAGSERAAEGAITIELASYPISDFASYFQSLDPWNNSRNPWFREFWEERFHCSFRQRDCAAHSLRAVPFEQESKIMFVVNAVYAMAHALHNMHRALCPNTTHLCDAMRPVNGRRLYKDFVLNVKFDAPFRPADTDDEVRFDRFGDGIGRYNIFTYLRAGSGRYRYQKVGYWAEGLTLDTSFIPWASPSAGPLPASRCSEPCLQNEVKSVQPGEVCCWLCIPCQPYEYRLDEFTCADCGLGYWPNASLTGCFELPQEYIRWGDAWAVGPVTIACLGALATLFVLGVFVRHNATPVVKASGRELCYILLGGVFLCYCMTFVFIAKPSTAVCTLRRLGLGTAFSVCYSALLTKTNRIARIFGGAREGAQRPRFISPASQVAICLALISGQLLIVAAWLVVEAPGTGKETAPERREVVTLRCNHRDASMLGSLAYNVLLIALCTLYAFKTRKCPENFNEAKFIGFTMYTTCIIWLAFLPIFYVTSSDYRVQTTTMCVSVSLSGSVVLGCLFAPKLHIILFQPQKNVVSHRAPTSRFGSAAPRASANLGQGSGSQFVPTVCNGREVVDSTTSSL

`NS(=O)(=O)c1cccc(-c2cn(-c3nc(-c4ccc(Cl)s4)cc(C(F)(F)F)n3)cn2)c1` [Example 1, 3-{1-[4-(5-Chloro-thiophen-2-yl)-6-trifluoromethyl-pyrimidin-2-yl]-1H-imidazol-4-yl}-benzenesulfonamide] registered a melting point of 189 °C. At rat mGlu2 receptor, this compound registered a Ki of 11.6 nM.

On to `NS(=O)(=O)c1cccc(-c2cccc(-c3nc(-c4ccc(C(F)(F)F)nc4)cc(C(F)(F)F)n3)c2)c1` [Example 2, 3′-[4-Trifluoromethyl-6-(6-trifluoromethyl-pyridin-3-yl)-pyrimidin-2-yl]-biphenyl-3-sulfonic acid amide], for which the melting point is 211 °C. Further, on rat mGlu2 receptor, affinity was put at a Ki of 1.8 nM. On the same counts, the results for `NS(=O)(=O)c1ccc(-c2cccc(-c3nc(-c4ccc(C(F)(F)F)nc4)cc(C(F)(F)F)n3)c2)s1` [Example 3, 5-{3-[4-Trifluoromethyl-6-(6-trifluoromethyl-pyridin-3-yl)-pyrimidin-2-yl]-phenyl}-thiophene-2-sulfonic acid amide] are 250.5 °C and 12 nM. For `NS(=O)(=O)c1cccc(-c2cccc(-c3nc(-c4ccc(Cl)s4)cc(C(F)(F)F)n3)c2)c1` [Example 4, 3′-[4-(5-Chloro-thiophen-2-yl)-6-trifluoromethyl-pyrimidin-2-yl]-biphenyl-3-sulfonic acid amide], the melting point was determined as 226.5 °C. Further, the affinity on rat mGlu2 receptor corresponds to a Ki of 14.3 nM. `Nc1ccc(-c2cccc(-c3nc(-c4ccc(Cl)s4)cc(C(F)(F)F)n3)c2)cn1` [Example 5, 5-{3-[4-(5-Chloro-thiophen-2-yl)-6-trifluoromethyl-pyrimidin-2-yl]-phenyl}-pyridin-2-ylamine] had a melting point of 99 °C. At rat mGlu2 receptor, the Ki amounted to 139 nM. Regarding `Nc1ncc(-c2cccc(-c3nc(-c4ccc(Cl)s4)cc(C(F)(F)F)n3)c2)cn1` [Example 6, 5-{3-[4-(5-Chloro-thiophen-2-yl)-6-trifluoromethyl-pyrimidin-2-yl]-phenyl}-pyrimidin-2-ylamine], the melting point is 228 °C. Still for that read-out and setting: to `NS(=O)(=O)c1ccc(-c2cccc(-c3nc(-c4ccc(Cl)s4)cc(C(F)(F)F)n3)c2)s1` [Example 7, 5-{3-[4-(5-Chloro-thiophen-2-yl)-6-trifluoromethyl-pyrimidin-2-yl]-phenyl}-thiophene-2-sulfonic acid amide] belongs 233 °C. `Nc1ccc(-c2cc(-c3nc(-c4ccc(C(F)(F)F)nc4)cc(C(F)(F)F)n3)ccn2)cn1` [Example 8, 4-[4-Trifluoromethyl-6-(6-trifluoromethyl-pyridin-3-yl)-pyrimidin-2-yl]-[2,3′]bipyridinyl-6′-ylamine] displayed a melting point of 261.5 °C. Further, the Ki at rat mGlu2 receptor was 15.6 nM. In the same order, the values of `NS(=O)(=O)c1cccc(-c2cc(-c3nc(-c4ccc(C(F)(F)F)nc4)cc(C(F)(F)F)n3)ccn2)c1` [Example 9, 3-{4-[4-Trifluoromethyl-6-(6-trifluoromethyl-pyridin-3-yl)-pyrimidin-2-yl]-pyridin-2-yl}-benzenesulfonamide] are 258 °C and 5.3 nM. The compound `NS(=O)(=O)c1ccc(-c2cc(-c3nc(-c4ccc(C(F)(F)F)nc4)cc(C(F)(F)F)n3)ccn2)s1` [Example 10, 5-{4-[4-Trifluoromethyl-6-(6-trifluoromethyl-pyridin-3-yl)-pyrimidin-2-yl]-pyridin-2-yl}-thiophene-2-sulfonic acid amide] displayed a melting point of 262.5 °C. Moreover, the Ki on rat mGlu2 receptor came out at 6.6 nM.

Consider `CCC(=O)NS(=O)(=O)c1cccc(-c2cc(-c3nc(-c4ccc(C(F)(F)F)nc4)cc(C(F)(F)F)n3)ccn2)c1` [Example 11, N-Propionyl-3-{4-[4-trifluoromethyl-6-(6-trifluoromethyl-pyridin-3-yl)-pyrimidin-2-yl]-pyridin-2-yl}-benzenesulfonamide], for which the melting point was determined as 242 °C. `Nc1ccc(-c2cn(-c3nc(-c4ccc(C(F)(F)F)nc4)cc(C(F)F)n3)cn2)cn1` [Example 14, 5-{1-[4-Difluoromethyl-6-(6-trifluoromethyl-pyridin-3-yl)-pyrimidin-2-yl]-1H-imidazol-4-yl}-pyridin-2-ylamine] registered a melting point of 258 °C.

`NS(=O)(=O)c1cccc(-c2cccc(-c3nc(-c4ccc(C(F)(F)F)nc4)cc(C(F)F)n3)c2)c1` [Example 15, 3′-[4-Difluoromethyl-6-(6-trifluoromethyl-pyridin-3-yl)-pyrimidin-2-yl]-biphenyl-3-sulfonic acid amide] displayed a melting point of 222 °C.

Turning to `NS(=O)(=O)c1cccc(-c2cc(-c3nc(-c4ccc(C(F)(F)F)nc4)cc(C(F)F)n3)ccn2)c1` [Example 16, 3-{4-[4-Difluoromethyl-6-(6-trifluoromethyl-pyridin-3-yl)-pyrimidin-2-yl]-pyridin-2-yl}-benzenesulfonamide], the melting point is 264.5 °C. The compound `NS(=O)(=O)c1ccc(-c2cccc(-c3nc(-c4ccc(C(F)(F)F)nc4)cc(C(F)F)n3)c2)s1` [Example 18, 5-{3-[4-Difluoromethyl-6-(6-trifluoromethyl-pyridin-3-yl)-pyrimidin-2-yl]-phenyl}-thiophene-2-sulfonic acid amide] came in with a melting point of 245.5 °C. `Cc1cc(-c2ccc(C(F)(F)F)nc2)nc(-c2ccnc(-c3cccc(S(N)(=O)=O)c3)c2)n1` [Example 21, 3-{4-[4-Methyl-6-(6-trifluoromethyl-pyridin-3-yl)-pyrimidin-2-yl]-pyridin-2-yl}-benzenesulfonamide]: the melting point came out at 255 °C. Consider `Cc1cc(-c2ccc(C(F)(F)F)nc2)nc(-c2ccnc(-c3ccc(S(N)(=O)=O)s3)c2)n1` [Example 22, 5-{4-[4-Methyl-6-(6-trifluoromethyl-pyridin-3-yl)-pyrimidin-2-yl]-pyridin-2-yl}-thiophene-2-sulfonic acid amide], for which the melting point amounted to 289 °C. As to `Cc1cc(-c2ccc(C(F)(F)F)nc2)nc(-c2cccc(-c3cccc(S(N)(=O)=O)c3)c2)n1` [Example 23, 3′-[4-Methyl-6-(6-trifluoromethyl-pyridin-3-yl)-pyrimidin-2-yl]-biphenyl-3-sulfonic acid amide], the melting point worked out at 220 °C. Regarding `Cc1cc(-c2ccc(C(F)(F)F)nc2)nc(-c2cccc(-c3ccc(S(N)(=O)=O)s3)c2)n1` [Example 24, 5-{3-[4-Methyl-6-(6-trifluoromethyl-pyridin-3-yl)-pyrimidin-2-yl]-phenyl}-thiophene-2-sulfonic acid amide], the melting point was 237.5 °C. Compound `Cc1cc(-c2ccc(C(F)(F)F)cn2)nc(-c2cccc(-c3cccc(S(=O)(=O)NC(C)(C)C)c3)n2)n1` [Example 25] gave a Ki on rat mGlu2 receptor of 105 nM. The compound `Cc1cc(-c2ccc(C(F)(F)F)cn2)nc(-c2cccc(-c3cccc(S(N)(=O)=O)c3)n2)n1` [Example 27, 3-{6-[4-Methyl-6-(5-trifluoromethyl-pyridin-2-yl)-pyrimidin-2-yl]-pyridin-2-yl}-benzenesulfonamide] showed a melting point of 246 to 252 °C. On the same count and under the same terms, to `Cc1cc(-c2ccc(C(F)(F)F)nc2)nc(-c2cccc(-c3cccc(S(N)(=O)=O)c3)n2)n1` [Example 28, 3-{6-[4-Methyl-6-(6-trifluoromethyl-pyridin-3-yl)-pyrimidin-2-yl]-pyridin-2-yl}-benzenesulfonamide] belongs 254 °C; to `Cc1cc(-c2ccc(C(F)(F)F)nc2)cc(-c2cccc(-c3cccc(S(N)(=O)=O)c3)c2)n1` [Example 34, 3′-(6′-Methyl-6-trifluoromethyl-[3,4′]bipyridinyl-2′-yl)-biphenyl-3-sulfonic acid amide], 227 to 232 °C; to `Cc1cc(-c2ccc(C(F)(F)F)nc2)cc(-c2cccc(-c3ccc(S(N)(=O)=O)s3)c2)n1` [Example 35, 5-[3-(6′-Methyl-6-trifluoromethyl-[3,4′]bipyridinyl-2′-yl)-phenyl]-thiophene-2-sulfonic acid amide], 231 to 233 °C.
